Legend:
Conditions in all cases: exposure time: 72 h
E57 [1] = patient-derived glioblastoma stem cells of mesenchymal subtype; assay: phenotypic distance (Euclidean, principal components) from DMSO controls (arbitrary units); higher = stronger morphological change
E21 [2] = patient-derived glioblastoma stem cells of mesenchymal subtype; assay: as above
E13 [3] = patient-derived glioblastoma stem cells of classical subtype; assay: as above
E31 [4] = patient-derived glioblastoma stem cells of proneural subtype; assay: as above
E28 [5] = patient-derived glioblastoma stem cells of classical subtype; assay: as above
E34 [6] = patient-derived glioblastoma stem cells of proneural subtype; assay: as above
FT3469 [7] = normal neural stem cell line; assay: as above
E57 [8] = assay: surviving fraction (nuclei count normalised to DMSO); higher = more cells surviving (less toxic)
E21 [9] = assay: as above
E13 [10] = assay: as above
E31 [11] = assay: as above
E28 [12] = assay: as above
E34 [13] = assay: as above
FT3469 [14] = assay: as above
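Throughout, for phenotypic distance (Euclidean, principal components) from DMSO controls: cell Painting imaging in 384-well plates, CellProfiler features reduced to at least 20 principal components, Euclidean distance versus same-plate DMSO vehicle wells (0.1% v/v), median over six images per well.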
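Throughout, for surviving fraction (nuclei count normalised to DMSO): nuclei counted by high-content imaging of Hoechst-stained cells in laminin-coated 384-well plates, relative to 0.1% DMSO vehicle wells, with staurosporine as cell-death control.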

Oc1c(Cl)cc(Cl)c(Cl)c1Cc1c(O)c(Cl)cc(Cl)c1Cl [Hexachlorophene]
Conditions | phenotypic distance | surviving fraction
E13 [3], 4.1 nM | 0.81 | –
E13 [3], 12.3 nM | 0.795 | –
E13 [3], 37 nM | 3 | –
E13 [3], 111.1 nM | 0.903 | –
E13 [3], 333.3 nM | 3.34 | –
E13 [3], 1000 nM | 1.8 | –
E13 [3], 3000 nM | 3.77 | –
E13 [10], 4.1 nM | – | 0.829
E13 [10], 12.3 nM | – | 0.908
E13 [10], 37 nM | – | 0.957
E13 [10], 111.1 nM | – | 0.796
E13 [10], 333.3 nM | – | 0.826
E13 [10], 1000 nM | – | 0.68
E13 [10], 3000 nM | – | 0.367
E21 [2], 4.1 nM | 1 | –
E21 [2], 12.3 nM | 0.629 | –
E21 [2], 37 nM | 1.26 | –
E21 [2], 111.1 nM | 0.988 | –
E21 [2], 333.3 nM | 1.51 | –
E21 [2], 1000 nM | 2.2 | –
E21 [2], 3000 nM | 4.77 | –
E21 [9], 4.1 nM | – | 0.928
E21 [9], 12.3 nM | – | 0.925
E21 [9], 37 nM | – | 0.965
E21 [9], 111.1 nM | – | 0.903
E21 [9], 333.3 nM | – | 0.964
E21 [9], 1000 nM | – | 0.762
E21 [9], 3000 nM | – | 0.552
E28 [5], 4.1 nM | 1.12 | –
E28 [5], 12.3 nM | 0.421 | –
E28 [5], 37 nM | 0.961 | –
E28 [5], 111.1 nM | 0.709 | –
E28 [5], 333.3 nM | 0.784 | –
E28 [5], 1000 nM | 1.11 | –
E28 [5], 3000 nM | 1.45 | –
E28 [12], 4.1 nM | – | 0.954
E28 [12], 12.3 nM | – | 1.03
E28 [12], 37 nM | – | 1.04
E28 [12], 111.1 nM | – | 0.884
E28 [12], 333.3 nM | – | 1.04
E28 [12], 1000 nM | – | 0.839
E28 [12], 3000 nM | – | 0.748
E31 [4], 4.1 nM | 0.745 | –
E31 [4], 12.3 nM | 0.7 | –
E31 [4], 37 nM | 0.853 | –
E31 [4], 111.1 nM | 0.867 | –
E31 [4], 333.3 nM | 1.39 | –
E31 [4], 1000 nM | 1.83 | –
E31 [4], 3000 nM | 3.79 | –
E31 [11], 4.1 nM | – | 0.956
E31 [11], 12.3 nM | – | 0.937
E31 [11], 37 nM | – | 1.03
E31 [11], 111.1 nM | – | 0.964
E31 [11], 333.3 nM | – | 1.03
E31 [11], 1000 nM | – | 1.18
E31 [11], 3000 nM | – | 0.648
E34 [6], 4.1 nM | 0.861 | –
E34 [6], 12.3 nM | 0.839 | –
E34 [6], 37 nM | 0.672 | –
E34 [6], 111.1 nM | 0.741 | –
E34 [6], 333.3 nM | 1.14 | –
E34 [6], 1000 nM | 2.31 | –
E34 [6], 3000 nM | 3.14 | –
E34 [13], 4.1 nM | – | 0.818
E34 [13], 12.3 nM | – | 0.897
E34 [13], 37 nM | – | 1
E34 [13], 111.1 nM | – | 0.845
E34 [13], 333.3 nM | – | 0.754
E34 [13], 1000 nM | – | 0.721
E34 [13], 3000 nM | – | 0.448
E57 [1], 4.1 nM | 0.958 | –
E57 [1], 12.3 nM | 0.865 | –
E57 [1], 37 nM | 1 | –
E57 [1], 111.1 nM | 1.03 | –
E57 [1], 333.3 nM | 2.28 | –
E57 [1], 1000 nM | 3.09 | –
E57 [1], 3000 nM | 6.18 | –
E57 [8], 4.1 nM | – | 0.988
E57 [8], 12.3 nM | – | 1.11
E57 [8], 37 nM | – | 0.949
E57 [8], 111.1 nM | – | 0.977
E57 [8], 333.3 nM | – | 0.908
E57 [8], 1000 nM | – | 0.776
E57 [8], 3000 nM | – | 0.396
FT3469 [7], 4.1 nM | 0.687 | –
FT3469 [7], 12.3 nM | 1.29 | –
FT3469 [7], 37 nM | 0.725 | –
FT3469 [7], 111.1 nM | 0.625 | –
FT3469 [7], 333.3 nM | 1.47 | –
FT3469 [7], 1000 nM | 1.56 | –
FT3469 [7], 3000 nM | 2.68 | –
FT3469 [14], 4.1 nM | – | 0.963
FT3469 [14], 12.3 nM | – | 0.887
FT3469 [14], 37 nM | – | 1.07
FT3469 [14], 111.1 nM | – | 0.895
FT3469 [14], 333.3 nM | – | 0.922
FT3469 [14], 1000 nM | – | 0.792
FT3469 [14], 3000 nM | – | 0.648

Reference: the supplement of paper PMC13207355
